The values below are quoted from earlier work in US20250099360A1 (Goodier Cosmetics, LLC, priority 2023, published 2025).

The test system of this data set is UV-B-induced lipid peroxidation. The conditions noted are these: UV-B radiation.

Consider `CCCCCCCCCCCCCCCC(=O)OC[C@H](O)[C@H]1OC(=O)C(O)=C1O` [ascorbyl palmitate], for which the “effect on UV-B-induced lipid peroxidation” value was “promotes UV-B-induced lipid peroxidation”.
